Literature values as cited in patent US9808553B2, “Haemostatic wound dressing” (Haemostatix Limited, priority 2012, dated 2017).

Target: fibrinogen (Homo sapiens, UniProt P02679)
Sequence (P02679 27-453): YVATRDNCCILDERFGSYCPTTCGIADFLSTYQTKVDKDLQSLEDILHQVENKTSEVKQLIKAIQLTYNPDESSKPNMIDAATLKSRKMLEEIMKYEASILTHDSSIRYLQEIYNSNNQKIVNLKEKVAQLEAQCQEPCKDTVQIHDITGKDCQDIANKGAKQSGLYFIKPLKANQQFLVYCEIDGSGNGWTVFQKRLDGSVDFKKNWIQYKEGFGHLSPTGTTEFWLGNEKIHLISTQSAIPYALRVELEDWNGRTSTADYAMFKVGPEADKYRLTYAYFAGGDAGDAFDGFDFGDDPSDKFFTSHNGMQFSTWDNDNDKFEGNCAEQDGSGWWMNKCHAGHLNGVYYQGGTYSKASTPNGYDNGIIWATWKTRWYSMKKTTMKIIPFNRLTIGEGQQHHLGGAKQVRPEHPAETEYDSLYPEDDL
Sequence (P02671 20-629 partner limits assumed): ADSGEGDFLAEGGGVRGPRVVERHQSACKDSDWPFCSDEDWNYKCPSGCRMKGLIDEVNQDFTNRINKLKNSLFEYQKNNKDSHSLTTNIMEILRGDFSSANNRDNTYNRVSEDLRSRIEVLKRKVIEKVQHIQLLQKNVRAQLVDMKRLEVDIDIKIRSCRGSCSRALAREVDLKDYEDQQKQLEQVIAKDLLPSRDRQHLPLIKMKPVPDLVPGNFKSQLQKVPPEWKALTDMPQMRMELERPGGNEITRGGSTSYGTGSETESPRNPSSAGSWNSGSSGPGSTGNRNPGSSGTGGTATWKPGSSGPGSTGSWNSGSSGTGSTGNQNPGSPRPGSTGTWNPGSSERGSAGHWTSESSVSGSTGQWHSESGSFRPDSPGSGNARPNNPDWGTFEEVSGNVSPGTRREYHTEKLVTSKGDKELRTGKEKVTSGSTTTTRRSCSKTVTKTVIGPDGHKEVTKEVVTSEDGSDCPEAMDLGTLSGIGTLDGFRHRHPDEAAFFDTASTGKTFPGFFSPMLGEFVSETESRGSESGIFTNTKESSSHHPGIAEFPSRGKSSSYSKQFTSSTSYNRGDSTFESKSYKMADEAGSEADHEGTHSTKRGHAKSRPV
Sequence (P02675 31-491 partner): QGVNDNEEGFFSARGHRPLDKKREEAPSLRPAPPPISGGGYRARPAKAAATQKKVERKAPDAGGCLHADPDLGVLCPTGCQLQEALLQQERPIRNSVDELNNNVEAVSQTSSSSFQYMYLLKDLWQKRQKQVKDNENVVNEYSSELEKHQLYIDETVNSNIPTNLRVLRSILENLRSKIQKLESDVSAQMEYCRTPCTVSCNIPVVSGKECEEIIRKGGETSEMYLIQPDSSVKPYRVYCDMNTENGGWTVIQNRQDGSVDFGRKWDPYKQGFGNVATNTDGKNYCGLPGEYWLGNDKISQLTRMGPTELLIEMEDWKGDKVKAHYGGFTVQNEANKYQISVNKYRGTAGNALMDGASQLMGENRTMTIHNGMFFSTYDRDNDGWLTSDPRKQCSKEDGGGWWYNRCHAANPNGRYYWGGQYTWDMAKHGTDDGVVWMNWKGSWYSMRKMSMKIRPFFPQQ

GPRP
Affinity for fibrinogen versus natural cleaved sequence with valine at position four: higher affinity
